Laboratory results: paper PMC4865820, “Branched Peptide, B2088, Disrupts the Supramolecular Organization of Lipopolysaccharides and Sensitizes the Gram-negative Bacteria” (Scientific Reports, 2016)
Positions of bridges follow the written chain, without caps; N, C: chain ends. Non-standard residues stand in square brackets, D forms with d. Residues, ends and D or L forms follow the SMILES beside them. Chains are numbered I, II in the order given. Bip = N[C@@H](Cc1ccc(-c2ccccc2)cc1)C(=O)O; Nle = CCCC[C@H](N)C(=O)O

Columns and labels:
K. pneumoniae ATCC10031 = type: cell-based; details: ATCC10031, 24 h
Description: (§1) MIC of each peptide was determined using the microdilution method in a 96 well microtitre plates (SPL Life Sciences Co., Ltd, Korea). Two-fold serial dilutions of each peptide in Mueller-Hinton Broth (MHB) was prepared from a 1 mg/ml stock solution of the peptide in the same broth, to obtain a final concentration in the range of 0.0976–50 μg/ml in each well. Bacterial suspensions (P. aeruginosa ATCC 27853, P. aeruginosa 4877, P. aeruginosa 23155, K. pneumoniae ATCC 10031 and K. pneumoniae 4299) were prepared by suspending the overnight cultured bacteria in saline and adjusting the inoculum to ~10^8 colony forming units (CFU) per ml. A further 150-fold dilution was then prepared in MHB to achieve a final cell density of 10^5–10^6 CFU/ml. In each well, 100 μl of inoculum was mixed with the equal volume of peptides at their 2× concentration. Positive and negative controls contained 200 μl of inoculum (without any peptide) and broth alone (no peptide/inoculum) respectively. Another negative control in which MHB containing 200 μl of peptide alone in its highest concentration tested (50 μg/ml) was also included to ensure that the optical density measured in the test wells was not due to turbidity of the peptides in solution. The 96 well polystyrene plates were then incubated at 37 °C for 24 h and the optical density at 600 nm (OD600) was measured every 30 min continuously using a TECAN microplate reader (TECAN Infinite 200, Austria). All the experiments were performed in two independent duplicates and the MIC was determined as the lowest peptide concentration in which no visible growth was observed.

P. aeruginosa 23155 = type: cell-based; details: 23155, 24 h
Description: as §1

[1] = system: LPS (E. coli serotype 055:B5); experiment: BODIPY TR cadaverine (BC) displacement assay with LPS; type: binding; details: no unit in table; ED50 values in μM; 5 mM HEPES pH 7.4; duplicates; read-out: BC50 (LPS binding)
Method in brief: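 Peptides (0.02–25.6 μM, two-fold dilutions) mixed 1:1 with BODIPY TR cadaverine:LPS (E. coli 055:B5) mixture in 5 mM HEPES pH 7.4; fluorescence at 580/620 nm. Displacement normalized to polymyxin B (Fmax) and probe:LPS alone (F0); ED50 from curve fit, duplicates.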

K. pneumonia 4299 = experiment: microbe, parasite or virus in culture; type: cell-based, K. pneumoniae; details: 24 h
Description: as §1

P. aeruginosa ATCC 27853 [2] = type: cell-based; details: ATCC 27853; for Fractional inhibitory concentration of peptide/PMB, combination with Genta: first number in parenthesis; for Fractional inhibitory concentration of antibiotic, Genta combination: second number in parenthesis
Method in brief: (§2)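 Checkerboard combinations of peptide and antibiotic, each 2-fold diluted up to 1× MIC in MHB, were tested against ~10^6 CFU/ml final inoculum. Plates were incubated 24 h at 37 °C, with growth read at OD600. FICI was the sum of the combination-to-alone MIC ratios for each agent, and the lowest FICI from duplicate experiments was reported.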

P. aeruginosa DR4877/07 = type: cell-based; details: for Fractional inhibitory concentration of peptide/PMB, combination with Chloarm / Fractional inhibitory concentration of peptide/PMB, combination with Erythro / Fractional inhibitory concentration of peptide/PMB, combination with Levo / Fractional inhibitory concentration of peptide/PMB, combination with Tobra: first number in parenthesis; for Fractional inhibitory concentration of antibiotic, Chloarm combination / Fractional inhibitory concentration of antibiotic, Erythro combination / Fractional inhibitory concentration of antibiotic, Levo combination / Fractional inhibitory concentration of antibiotic, Tobra combination: second number in parenthesis
Method in brief: as §2

P. aeruginosa ATCC 27853 [3] = experiment: microbe, parasite or virus in culture; type: cell-based; details: ATCC 27853, 24 h
Description: as §1

P. aeruginosa ATCC 9027 = experiment: Outer membrane permeability assay (NPN); type: cell-based; details: no unit in table; Fig. S5 axis [Peptide], μM; 10 μM NPN, 5 mM HEPES pH 7.4, ex 355/em 405 nm; average of two titrations; read-out: PC50 (peptide concentration for half-maximal NPN intensity, OM permeability)
Description: The ability of each peptide to permeabilize the OM of Gram-negative organisms was determined using the hydrophobic fluorescent probe 1-N-phenylnaphthylamine (NPN) as previously reported. P. aeruginosa ATCC 9027 cells from an overnight MHB culture were harvested after centrifuging at 3000 rpm for 10 minutes. The pellet was washed twice, suspended in 5 mM HEPES (N- 2-hydroxyethylpiperazine-N’-2 ethanesulfonic acid) buffer (pH 7.4) and adjusted to an OD600 of 0.200. A suspension containing 600 μl of bacteria cells and 1 μl of a concentrated stock solution of NPN was mixed into a 10 mm stirred quartz cuvette so that the final concentration of the probe remained 10 μM. Aliquots containing 1 μl of each peptide in various concentrations (100, 50, 25, 15, 10, 5, 2.5 and 1 μg/ml) were added upon NPN dye stabilization. The fluorescence intensity was monitored using a Quanta Master spectrophotometer with a constant slit width of 0.5 nm, excitation and emission wavelengths set at 355 nm and 405 nm respectively. The peptide concentration required for half-maximal intensity (PC50) was determined by sigmoidal curve fitting using Graphpad Prism software. The experimental data is average of two independent titration experiments.

SMILES	Minimum Inhibitory Concentration against K. pneumoniae ATCC10031 (K. pneumoniae ATCC10031) [µM]	Minimum Inhibitory Concentration against P. aeruginosa 23155 (P. aeruginosa 23155) [µM]	EC50 [1] [µM]	Minimum Inhibitory Concentration against K. pneumonia 4299 (K. pneumonia 4299) [µM]	Fractional inhibitory concentration of peptide/PMB, combination with Genta (P. aeruginosa ATCC 27853 [2])	Fractional inhibitory concentration of antibiotic, Genta combination (P. aeruginosa ATCC 27853 [2])	Fractional inhibitory concentration of peptide/PMB, combination with Chloarm (P. aeruginosa DR4877/07)	Fractional inhibitory concentration of peptide/PMB, combination with Erythro (P. aeruginosa DR4877/07)	Fractional inhibitory concentration of peptide/PMB, combination with Levo (P. aeruginosa DR4877/07)	Fractional inhibitory concentration of peptide/PMB, combination with Tobra (P. aeruginosa DR4877/07)	Fractional inhibitory concentration of antibiotic, Chloarm combination (P. aeruginosa DR4877/07)	Fractional inhibitory concentration of antibiotic, Erythro combination (P. aeruginosa DR4877/07)	Fractional inhibitory concentration of antibiotic, Levo combination (P. aeruginosa DR4877/07)	Fractional inhibitory concentration of antibiotic, Tobra combination (P. aeruginosa DR4877/07)	Minimum Inhibitory Concentration against P. aeruginosa ATCC 27853 (P. aeruginosa ATCC 27853 [3]) [µM]	EC50 (P. aeruginosa ATCC 9027) [µM]
CC(C)C[C@H](NC(=O)[C@H](CCCCN)NC(=O)[C@H](CCCNC(=N)N)NC(=O)CNC(=O)[C@@H](N)CCCNC(=N)N)C(=O)N[C@@H](CC(C)C)C(=O)N[C@@H](CCCNC(=N)N)C(=O)N[C@@H](CCCNC(=N)N)C(=O)NCCCC[C@H](NC(=O)[C@H](CCCNC(=N)N)NC(=O)[C@H](CCCNC(=N)N)NC(=O)[C@H](CC(C)C)NC(=O)[C@H](CC(C)C)NC(=O)[C@H](CCCCN)NC(=O)[C@H](CCCNC(=N)N)NC(=O)CNC(=O)[C@@H](N)CCCNC(=N)N)C(=O)N[C@@H](CCCCN)C(=O)O (I: H-RGRKLLRRKK-OH / II: H-RGRKLLRR; amide I:9-II:C; N-terminus and C-terminus assumed)	5.3	2.7	1.47 ± 0.02	5.3	(0.25,0.25)	(0.25,0.25)	0.25	(0.5,0.5)	0.5	(0.25,0.25)	0.13	(0.5,0.5)	0.06	(0.25,0.25)	2.7	17.5 ± 0.4
CCCC[C@H](NC(=O)[C@H](CCCCN)NC(=O)[C@H](CCCNC(=N)N)NC(=O)CNC(=O)[C@@H](N)CCCNC(=N)N)C(=O)N[C@@H](CCCC)C(=O)N[C@@H](CCCNC(=N)N)C(=O)N[C@@H](CCCNC(=N)N)C(=O)NCCCC[C@H](NC(=O)[C@H](CCCNC(=N)N)NC(=O)[C@H](CCCNC(=N)N)NC(=O)[C@H](CCCC)NC(=O)[C@H](CCCC)NC(=O)[C@H](CCCCN)NC(=O)[C@H](CCCNC(=N)N)NC(=O)CNC(=O)[C@@H](N)CCCNC(=N)N)C(=O)N[C@@H](CCCCN)C(=O)O [(RGRKNleuNleuRR)2KK] (I: H-RGRK[Nle][Nle]RRKK-OH / II: H-RGRK[Nle][Nle]RR; amide I:9-II:C; N-terminus and C-terminus assumed)	2.7	2.7	1.62 ± 0.02	5.3	0.5	0.01	0.5	0.5	0.5	0.06	0.06	0.03	0.25	0.5	2.7	16.4 ± 0.1
N=C(N)NCCC[C@H](NC(=O)CNC(=O)[C@@H](N)CCCNC(=N)N)C(=O)N[C@@H](CCCCN)C(=O)N[C@@H](Cc1ccc(-c2ccccc2)cc1)C(=O)N[C@@H](Cc1ccc(-c2ccccc2)cc1)C(=O)N[C@@H](CCCNC(=N)N)C(=O)N[C@@H](CCCNC(=N)N)C(=O)NCCCC[C@H](NC(=O)[C@H](CCCNC(=N)N)NC(=O)[C@H](CCCNC(=N)N)NC(=O)[C@H](Cc1ccc(-c2ccccc2)cc1)NC(=O)[C@H](Cc1ccc(-c2ccccc2)cc1)NC(=O)[C@H](CCCCN)NC(=O)[C@H](CCCNC(=N)N)NC(=O)CNC(=O)[C@@H](N)CCCNC(=N)N)C(=O)N[C@@H](CCCCN)C(=O)O [(RGRKFbiFbiRR)2KK] (I: H-RGRK[Bip][Bip]RRKK-OH / II: H-RGRK[Bip][Bip]RR; amide I:9-II:C; N-terminus and C-terminus assumed)	9.8	4.9	2.33 ± 0.06	19.6	0.5	0.06	0.5	(0.5,0.5)	(0.5,0.5)	(0.25,0.25)	0.06	(0.5,0.5)	(0.5,0.5)	(0.25,0.25)	9.8	22.2 ± 1.6
